For 8 compounds, IC50 and Activity results are on record in ChEMBL document CHEMBL4007412, “Design, Synthesis, and Biological Evaluation of Mitochondria-Targeted Flavone-Naphthalimide-Polyamine Conjugates with Antimetastatic Activity” (J Med Chem, 2017).

A short description of test [1]: Cytotoxicity against human QSG7701 cells assessed as cell growth inhibition after 48 hrs by MTT assay. It is filed as cell-based. The conditions noted are these: QSG7701, 48 h.
Another test concerns SMMC-7721. As to the kind of experiment: Cytotoxicity against human SMMC7721 cells assessed as cell growth inhibition after 48 hrs by MTT assay. The conditions noted are these: SMMC-7721, 48 h. The format is functional, cell-based. In general terms: Tetrazolium assays rely on reduction of a dye to a coloured formazan, in cell work by metabolically active cells.
The next test concerns HepG2. As to the kind of experiment: Cytotoxicity against human HepG2 cells assessed as cell growth inhibition after 48 hrs by MTT assay. It is filed as functional, cell-based. The conditions noted are these: HepG2, 48 h.
Test [2] deals with H22. As to the kind of experiment: Antimetastatic activity against […] xenografted in pulmonary metastasis Kunming mouse model assessed as reduction in tumor metastatic nodules at 5 mg/kg, iv dosed every day starting from day 8 after tumor cell inoculation. It is filed as functional. The arrangement: scale not given: the % may be the effect or the level left. For orientation: A xenograft is tissue or cells of one species grown in another, often human tumour cells in immunodeficient mice.

In test [3] the test system is H22. Kind of test: Antitumor activity against […] xenografted in Kunming mouse assessed as suppression of tumor weight at 5 mg/kg, iv dosed every day starting from day 8 after tumor cell inoculation. It is filed as functional.

pIC50: −log10 of the molar value. Some results are limits rather than exact numbers.

On to `NCCCNCCCNCCCN1C(=O)c2cccc3c(-c4cc(=O)c5ccccc5o4)ccc(c23)C1=O`, for which the pIC50 was 4.76 in test [1], 4.95 with SMMC-7721 and 4.83 in the test with HepG2.
In the case of `CN(C)CCN1C(=O)c2cccc3cc(N)cc(c23)C1=O` [AMONAFIDE], the pIC50 in test [1] was 5.11; in the test on SMMC-7721, 5.00; with HepG2 it was 5.00. Moreover, the values for the Activity with H22 [2] and in the test with H22 [3] were 41.4% and 48.1%, respectively.
As to `CCCCNCCCCN1C(=O)c2cccc3c(-c4cc(=O)c5ccccc5o4)ccc(c23)C1=O`, the pIC50 is 4.79 in test [1], 4.96 in the test on SMMC-7721 and 5.00 in the test with HepG2.
On the same counts, the results for `O=C1c2cccc3c(-c4cc(=O)c5ccccc5o4)ccc(c23)C(=O)N1CCCN1CCNCC1` are 4.46, 4.36 and less than 4.30.
On to `NCCCCNCCCN1C(=O)c2cccc3c(-c4cc(=O)c5ccccc5o4)ccc(c23)C1=O`, for which the pIC50 in test [1] was 4.38; with SMMC-7721 it was 4.96; in the test with HepG2, 5.01.
On the same counts, the results for `O=C1c2cccc3c(-c4cc(=O)c5ccccc5o4)ccc(c23)C(=O)N1CCCN1CCOCC1` are 4.32, 4.50 and less than 4.30.
On the same counts, the results for `O=C1c2cccc3c(-c4cc(=O)c5ccccc5o4)ccc(c23)C(=O)N1CCCCN1CCNCC1` are 4.77, 4.78 and 4.81.
With `CCCCN(CCCC)CCCN1C(=O)c2cccc3c(-c4cc(=O)c5ccccc5o4)ccc(c23)C1=O`, the negative-log IC50 (pIC50) in test [1] was less than 4.30; with SMMC-7721 it was 4.78; with HepG2, 4.72.

By pIC50 is commonly meant the IC50 on a negative log10 scale, so that one unit is a factor of ten.
